According to patent US10798941B2, “Microbiocidal oxadiazole derivatives” (SYNGENTA PARTICIPATIONS AG, priority 2016, dated 2020):

Assays:
Phakopsora pachyrhizi = Phakopsora pachyrhizi / soybean / leaf disc preventative (Asian soybean rust); format: in vivo; conditions: foliar, 288 h, 200 ppm in the applied formulation, soybean leaf disks, inoculated one day after application, assessed 12 to 14 days after application, vs untreated, read-out: disease control
Procedure: Leaf disks or leaf segments of various plant species are cut from plants grown in a greenhouse. The cut leaf disks or segments are placed in multiwell plates (24-well format) onto water agar. The leaf disks are sprayed with a test solution before (preventative) or after (curative) inoculation. Compounds to be tested are prepared as DMSO solutions (max. 10 mg/ml) which are diluted to the appropriate concentration with 0.025% Tween20 just before spraying. The inoculated leaf disks or segments are incubated under defined conditions (temperature, relative humidity, light, etc.) according to the respective test system. A single evaluation of disease level is carried out 3 to 14 days after inoculation, depending on the pathosystem. Percent disease control relative to the untreated check leaf disks or segments is then calculated.
Soybean leaf disks are placed on water agar in multiwell plates (24-well format) and sprayed with the formulated test compound diluted in water. One day after application leaf discs are inoculated by spraying a spore suspension on the lower leaf surface. After an incubation period in a climate cabinet of 24-36 hours in darkness at 20° C. and 75% rh leaf disc are kept at 20° C. with 12 h light/day and 75% rh. The activity of a compound is assessed as percent disease control compared to untreated when an appropriate level of disease damage appears in untreated check leaf disks (12 to 14 days after application).
The following compounds at 200 ppm in the applied formulation give at least 80% disease control in this test when compared to untreated control leaf disks under the same conditions, which show extensive disease development.

[1] = tested on: Glomerella Lagenarium (Colletotrichum Lagenarium); test: Glomerella lagenarium (Colletotrichum lagenarium) liquid culture / cucumber / preventative (anthracnose); format: cell-based; conditions: Colletotrichum orbiculare; 20 ppm in the applied formulation; liquid culture in PDB, 24° C., inhibition of growth measured photometrically 3 to 4 days after application, vs untreated; read-out: disease control
Method in brief: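 Conidia from cryogenic storage were mixed into potato dextrose broth. This was added to compound diluted from DMSO into 0.025% Tween20, tested at 20 ppm. Plates were incubated in the dark at 24 °C and 96% relative humidity, and growth was read photometrically after 2–7 days as % activity versus untreated check.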

[2] = tested on: Puccinia recondita f. Sp. Tritici; test: Puccinia recondita f. sp. tritici / wheat / leaf disc preventative (brown rust); format: in vivo; conditions: foliar, 168 h, 200 ppm in the applied formulation, wheat leaf segments cv. Kanzler, preventative, inoculated 1 day after application, assessed 7 to 9 days after application, vs untreated, read-out: disease control
Method in brief: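 Wheat cv. Kanzler leaf segments on agar were sprayed with formulated compound in water, then inoculated with spores 1 day later. Incubated at 19° C, 75% rh, 12 h light/12 h dark; percent disease control versus untreated scored 7 to 9 days after application.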

Row | SMILES | pest or weed control at 200 ppm (Phakopsora pachyrhizi) [%] | inhibition of growth at 20 ppm [1] [%] | pest or weed control at 200 ppm [2] [%]
1 | CCOC(=O)c1cnn(Cc2ccc(-c3noc(C(F)(F)F)n3)cc2)c1C(F)F [Compound 1.205, ethyl 5-(difluoromethyl)-1-[[4-[5-(trifluoromethyl)-1,2,4-oxadiazol-3-yl]phenyl]methyl]pyrazole-4-carboxylate] | ≥ 80 | ≥ 80 | –
2 | FC(F)(F)c1nc(-c2ccc(Cn3cnc(SCc4ccccc4)n3)cc2)no1 [Compound 1.212, 3-[4-[(3-benzylsulfanyl-1,2,4-triazol-1-yl)methyl]phenyl]-5-(trifluoromethyl)-1,2,4-oxadiazole] | ≥ 80 | ≥ 80 | ≥ 80
3 | Cc1nc2ccc(C(F)(F)F)cc2n1Cc1ccc(-c2noc(C(F)(F)F)n2)cc1 [Compound 1.190, 3-[4-[[2-methyl-6-(trifluoromethyl)benzimidazol-1-yl]methyl]phenyl]-5-(trifluoromethyl)-1,2,4-oxadiazole] | ≥ 80 | ≥ 80 | –
4 | FC(F)(F)c1nc(-c2ccc(Cn3nnnc3-c3ccccc3Br)cc2)no1 [Compound 1.152, 3-[4-[[5-(2-bromophenyl)tetrazol-1-yl]methyl]phenyl]-5-(trifluoromethyl)-1,2,4-oxadiazole] | ≥ 80 | ≥ 80 | –
5 | CCOC(=O)c1cc(C2CC2)n(Cc2ccc(-c3noc(C(F)(F)F)n3)cc2)n1 [Compound 1.186, ethyl 5-cyclopropyl-1-[[4-[5-(trifluoromethyl)-1,2,4-oxadiazol-3-yl]phenyl]methyl]pyrazole-3-carboxylate] | ≥ 80 | ≥ 80 | ≥ 80
6 | N#Cc1nn(Cc2ccc(-c3noc(C(F)(F)F)n3)cc2)c2ccccc12 [Compound 1.228, 1-[[4-[5-(trifluoromethyl)-1,2,4-oxadiazol-3-yl]phenyl]methyl]indazole-3-carbonitrile] | ≥ 80 | ≥ 80 | –
7 | CCOC(=O)c1ccc2nn(Cc3ccc(-c4noc(C(F)(F)F)n4)cc3)nc2c1 [Compound 1.185, ethyl 2-[[4-[5-(trifluoromethyl)-1,2,4-oxadiazol-3-yl]phenyl]methyl]benzotriazole-5-carboxylate] | ≥ 80 | ≥ 80 | –
8 | N#Cc1nn(Cc2ccc(-c3noc(C(F)(F)F)n3)cc2)c2cc(F)ccc12 [Compound 1.194, 6-fluoro-1-[[4-[5-(trifluoromethyl)-1,2,4-oxadiazol-3-yl]phenyl]methyl]indazole-3-carbonitrile] | ≥ 80 | ≥ 80 | –
9 | N#Cc1nnn(Cc2ccc(-c3noc(C(F)(F)F)n3)cc2)c1-c1c(F)cccc1F [Compound 1.240, 5-(2,6-difluorophenyl)-1-[[4-[5-(trifluoromethyl)-1,2,4-oxadiazol-3-yl]phenyl]methyl]triazole-4-carbonitrile] | ≥ 80 | ≥ 80 | ≥ 80
10 | COc1ccc(-c2cc(C=O)n(Cc3ccc(-c4noc(C(F)(F)F)n4)cc3)n2)cc1 [Compound 1.223, 5-(4-methoxyphenyl)-2-[[4-[5-(trifluoromethyl)-1,2,4-oxadiazol-3-yl]phenyl]methyl]pyrazole-3-carbaldehyde] | ≥ 80 | ≥ 80 | –
11 | FC(F)(F)c1ccn(Cc2ccc(-c3noc(C(F)(F)F)n3)cc2)n1 [Compound 1.21, 5-(trifluoromethyl)-3-[4-[[3-(trifluoromethyl)pyrazol-1-yl]methyl]phenyl]-1,2,4-oxadiazole] | ≥ 80 | ≥ 80 | ≥ 80
12 | Cc1ccc2c(nnn2Cc2ccc(-c3noc(C(F)(F)F)n3)cc2)c1C [Compound 1.198, 3-[4-[(4,5-dimethylbenzotriazol-1-yl)methyl]phenyl]-5-(trifluoromethyl)-1,2,4-oxadiazole] | ≥ 80 | ≥ 80 | –
13 | Cc1cc(O)nn1Cc1ccc(-c2noc(C(F)(F)F)n2)cc1 [Compound 1.171, 5-methyl-1-[[4-[5-(trifluoromethyl)-1,2,4-oxadiazol-3-yl]phenyl]methyl]pyrazol-3-ol] | ≥ 80 | ≥ 80 | ≥ 80
14 | O=Cc1ccc(-c2nnn(Cc3ccc(-c4noc(C(F)(F)F)n4)cc3)n2)cc1 [Compound 1.227, 4-[2-[[4-[5-(trifluoromethyl)-1,2,4-oxadiazol-3-yl]phenyl]methyl]tetrazol-5-yl]benzaldehyde] | ≥ 80 | ≥ 80 | –
15 | N#Cc1cc2ncccc2n1Cc1ccc(-c2noc(C(F)(F)F)n2)cc1 [Compound 1.158, 1-[[4-[5-(trifluoromethyl)-1,2,4-oxadiazol-3-yl]phenyl]methyl]pyrrolo[3,2-b]pyridine-2-carbonitrile] | ≥ 80 | ≥ 80 | ≥ 80
16 | N#Cc1cc2n(Cc3ccc(-c4noc(C(F)(F)F)n4)cc3)cccc-2n1 [Compound 1.157, 4-[[4-[5-(trifluoromethyl)-1,2,4-oxadiazol-3-yl]phenyl]methyl]pyrrolo[3,2-b]pyridine-2-carbonitrile] | ≥ 80 | ≥ 80 | ≥ 80
17 | CCOC(=O)c1cn(Cc2ccc(-c3noc(C(F)(F)F)n3)cc2)nc1C(F)F [Compound 1.204, ethyl 3-(difluoromethyl)-1-[[4-[5-(trifluoromethyl)-1,2,4-oxadiazol-3-yl]phenyl]methyl]pyrazole-4-carboxylate] | ≥ 80 | ≥ 80 | ≥ 80
18 | CC(=O)c1cccn1Cc1ccc(-c2noc(C(F)(F)F)n2)cc1 [Compound 1.59, 1-[1-[[4-[5-(trifluoromethyl)-1,2,4-oxadiazol-3-yl]phenyl]methyl]pyrrol-2-yl]ethanone] | ≥ 80 | ≥ 80 | –
19 | CCOC(=O)c1ccc2c(c1)nnn2Cc1ccc(-c2noc(C(F)(F)F)n2)cc1 [Compound 1.184, ethyl 1-[[4-[5-(trifluoromethyl)-1,2,4-oxadiazol-3-yl]phenyl]methyl]benzotriazole-5-carboxylate] | ≥ 80 | ≥ 80 | –
20 | CCCc1c(C(=O)OCC)ncn1Cc1ccc(-c2noc(C(F)(F)F)n2)cc1 [Compound 1.224, ethyl 5-propyl-1-[[4-[5-(trifluoromethyl)-1,2,4-oxadiazol-3-yl]phenyl]methyl]imidazole-4-carboxylate] | ≥ 80 | ≥ 80 | ≥ 80
21 | COC(=O)c1cccc2c1cnn2Cc1ccc(-c2noc(C(F)(F)F)n2)cc1 [Compound 1.193, methyl 1-[[4-[5-(trifluoromethyl)-1,2,4-oxadiazol-3-yl]phenyl]methyl]indazole-4-carboxylate] | ≥ 80 | ≥ 80 | ≥ 80
